From ChEMBL document CHEMBL1141611, “Truncation and non-natural amino acid substitution studies on HTLV-I protease hexapeptidic inhibitors” (Bioorg Med Chem Lett, 2008)
pIC50: −log10 of the molar value. *1 amine or outer side, *2 acyl side, *3 side chain or, on linkers, in order; H or OH if unused. Where a SMILES comes first, the peptide text is derived from it. [ ]: non-standard residue; d: D form. X1 = O=C([C@@H](O)[C@H](Cc1ccccc1)N[*:1])[*:2]; Thz(5,5-Me2) = CC1(C)SCN[C@@H]1C(=O)O

Legend:
Gag-Pro polyprotein = Gag-Pro polyprotein (Human T-cell leukemia virus 1 (strain Japan ATK-1 subtype A) (HTLV-1), UniProt P10274, L40I); assay: Inhibition of HTLV1 protease L40I mutant expressed in Escherichia coli BL21(DE3)pLysS; parameters: species or system Human T-cell leukemia virus type I
Gag-Pro polyprotein, sequence (P10274 450-574 L489I): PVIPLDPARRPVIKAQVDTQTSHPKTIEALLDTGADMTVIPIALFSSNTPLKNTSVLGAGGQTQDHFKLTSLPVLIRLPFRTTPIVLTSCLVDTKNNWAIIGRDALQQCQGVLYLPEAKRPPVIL

[1] = target: Protease (Human immunodeficiency virus 1) (UniProt Q9YQ12); assay: Inhibition of HIV1 protease at 50 nM
Protease (Human immunodeficiency virus 1), sequence (Q9YQ12 as listed by the source): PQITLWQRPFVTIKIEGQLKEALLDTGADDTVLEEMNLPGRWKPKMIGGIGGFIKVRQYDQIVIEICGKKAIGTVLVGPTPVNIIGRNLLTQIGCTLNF

Compound | pIC50 (Gag-Pro polyprotein) | inhibition [1]
CC(=O)N[C@H](C(=O)N[C@H](C(=O)N[C@@H](Cc1ccccc1)[C@H](O)C(=O)N1CSC(C)(C)C1C(=O)NCC(C)(C)C)C(C)(C)C)c1ccccc1 (some centres undefined) | 6.95 | 99%
CC[C@H](C)[C@H](NC(C)=O)C(=O)N[C@H](C(=O)N[C@@H](Cc1ccccc1)[C@H](O)C(=O)N1CSC(C)(C)[C@@H]1C(=O)N[C@H](C(=O)N[C@@H](CCC(N)=O)C(N)=O)[C@@H](C)CC)[C@@H](C)CC | 6.80 | 93%
CSCC[C@H](NC(=O)[C@@H](NC(=O)[C@H]1N(C(=O)[C@@H](O)[C@H](Cc2ccccc2)NC(=O)[C@@H](NC(=O)[C@H](CCC(N)=O)NC(C)=O)C(C)C)CSC1(C)C)C(C)C)C(N)=O (Ac-QV[X1][Thz(5,5-Me2)]VM-NH2) | 6.45 | 96%
CC[C@H](C)[C@H](NC(C)=O)C(=O)N[C@H](C(=O)N[C@@H](Cc1ccccc1)[C@H](O)C(=O)N1CSC(C)(C)[C@@H]1C(=O)N[C@H](C(=O)N[C@@H](Cc1ccccc1)C(N)=O)[C@@H](C)CC)[C@@H](C)CC | 7.02 | 98%
CCCNC(=O)C1N(C(=O)[C@@H](O)[C@H](Cc2ccccc2)NC(=O)[C@@H](NC(=O)[C@@H](NC(C)=O)c2ccccc2)C(C)(C)C)CSC1(C)C (some centres undefined) | 6.71 | 98%
CC(=O)N[C@H](C(=O)N[C@H](C(=O)N[C@@H](Cc1ccccc1)[C@H](O)C(=O)N1CSC(C)(C)C1C(=O)NCc1ccccc1C)C(C)(C)C)c1ccccc1 (some centres undefined) | 6.99 | 99%
CSCC[C@H](NC(=O)[C@@H](NC(=O)[C@@H]1CCCN1C(=O)[C@@H](O)[C@H](Cc1ccccc1)NC(=O)[C@@H](NC(=O)[C@H](CCC(N)=O)NC(=O)[C@@H]1CCCN1)C(C)C)C(C)C)C(=O)N[C@@H](Cc1cnc[nH]1)C(=O)O (H-PQV[X1]PVMH-OH) | 6.80 | < 30%
CC[C@H](C)[C@H](NC(C)=O)C(=O)N[C@H](C(=O)N[C@@H](Cc1ccccc1)[C@H](O)C(=O)N1CSC(C)(C)[C@@H]1C(=O)N[C@H](C(=O)N[C@@H](CCSC)C(N)=O)[C@@H](C)CC)C(C)(C)C | 6.84 | 97%
CC[C@H](C)[C@H](NC(=O)[C@@H]1N(C(=O)[C@@H](O)[C@H](Cc2ccccc2)NC(=O)[C@@H](NC(=O)[C@@H](NC(C)=O)c2ccccc2)C(C)(C)C)CSC1(C)C)C(=O)N[C@@H](CCSC)C(N)=O | 7.00 | 99%
CC[C@H](C)[C@H](NC(C)=O)C(=O)N[C@H](C(=O)N[C@@H](Cc1ccccc1)[C@H](O)C(=O)N1CSC(C)(C)[C@@H]1C(=O)N[C@H](C(=O)N[C@@H](CCSC)C(N)=O)c1ccccc1)[C@@H](C)CC | 6.91 | 86%
C=CCNC(=O)C1N(C(=O)[C@@H](O)[C@H](Cc2ccccc2)NC(=O)[C@@H](NC(=O)[C@@H](NC(C)=O)c2ccccc2)C(C)(C)C)CSC1(C)C (some centres undefined) | 6.88 | > 99%
CC[C@H](C)[C@H](NC(=O)[C@@H](NC(C)=O)c1ccccc1)C(=O)N[C@@H](Cc1ccccc1)[C@H](O)C(=O)N1CSC(C)(C)[C@@H]1C(=O)N[C@H](C(=O)N[C@@H](CCSC)C(N)=O)[C@@H](C)CC | 6.99 | 98%
C=C(C)CNC(=O)C1N(C(=O)[C@@H](O)[C@H](Cc2ccccc2)NC(=O)[C@@H](NC(=O)[C@@H](NC(C)=O)c2ccccc2)C(C)(C)C)CSC1(C)C (some centres undefined) | 6.85 | > 99%
CC[C@H](C)[C@H](NC(C)=O)C(=O)N[C@H](C(=O)N[C@H](Cc1ccccc1)[C@H](O)C(=O)N1CSC(C)(C)[C@@H]1C(=O)N[C@H](C(=O)N[C@@H](CCSC)C(N)=O)[C@@H](C)CC)[C@@H](C)CC | 6.74 | 73%
CC(=O)N[C@H](C(=O)N[C@H](C(=O)N[C@@H](Cc1ccccc1)[C@H](O)C(=O)N1CSC(C)(C)C1C(=O)NCc1cccc(I)c1)C(C)(C)C)c1ccccc1 (some centres undefined) | 6.33 | 97%
CC[C@H](C)[C@H](NC(C)=O)C(=O)N[C@H](C(=O)N[C@@H](Cc1ccccc1)[C@H](O)C(=O)N1CSC(C)(C)[C@@H]1C(=O)N[C@H](C(=O)N[C@@H](CCSC)C(N)=O)[C@@H](C)CC)[C@@H](C)CC | 7.06 | 98%
CC[C@H](C)[C@H](NC(C)=O)C(=O)N[C@H](C(=O)N[C@@H](Cc1ccccc1)[C@H](O)C(=O)N1CSC(C)(C)[C@@H]1C(=O)N[C@H](C(=O)N[C@@H](CCSC)C(N)=O)[C@@H](C)CC)c1ccccc1 | 6.49 | 88%
CC[C@H](C)[C@H](NC(=O)[C@@H]1N(C(=O)[C@@H](O)[C@H](Cc2ccccc2)NC(=O)[C@@H](NC(=O)[C@@H](NC(C)=O)[C@@H](C)CC)[C@@H](C)CC)CSC1(C)C)C(N)=O | 6.60 | 57%
CC(=O)N[C@H](C(=O)N[C@H](C(=O)N[C@@H](Cc1ccccc1)[C@H](O)C(=O)N1CSC(C)(C)C1C(=O)NCC1CC1)C(C)(C)C)c1ccccc1 (some centres undefined) | 6.84 | 99%
CSCC[C@H](NC(=O)[C@@H](NC(=O)[C@H]1N(C(=O)[C@@H](O)[C@H](Cc2ccccc2)NC(=O)[C@@H](NC(=O)[C@H](CCC(N)=O)NC(=O)[C@@H]2CCCN2)C(C)C)CSC1(C)C)C(C)C)C(=O)N[C@@H](Cc1cnc[nH]1)C(=O)O (H-PQV[X1][Thz(5,5-Me2)]VMH-OH) | 6.82 | –
CC[C@H](C)[C@H](NC(=O)[C@@H](NC(C)=O)C(C)(C)C)C(=O)N[C@@H](Cc1ccccc1)[C@H](O)C(=O)N1CSC(C)(C)[C@@H]1C(=O)N[C@H](C(=O)N[C@@H](CCSC)C(N)=O)[C@@H](C)CC | 6.70 | 98%
CSCC[C@H](NC(=O)[C@@H](NC(=O)[C@H]1N(C(=O)[C@@H](O)[C@H](Cc2ccccc2)NC(=O)[C@@H](NC(=O)[C@H](CCC(N)=O)NC(=O)[C@@H]2CCCN2)C(C)C)CSC1(C)C)C(C)C)C(=O)N[C@@H](Cc1c[nH]cn1)C(=O)O (H-PQV[X1][Thz(5,5-Me2)]VMH-OH) | – | 58%
CC(=O)N[C@H](C(=O)N[C@H](C(=O)N[C@@H](Cc1ccccc1)[C@H](O)C(=O)N1CSC(C)(C)C1C(=O)NCC(C)C)C(C)(C)C)c1ccccc1 (some centres undefined) | 6.97 | > 99%
CC[C@H](C)[C@H](NC(=O)[C@@H]1N(C(=O)[C@@H](O)[C@H](Cc2ccccc2)NC(=O)[C@@H](NC(=O)[C@@H](NC(C)=O)c2ccccc2)C(C)(C)C)CSC1(C)C)C(=O)N[C@@H](CCC(N)=O)C(N)=O | 7.08 | 98%
CC[C@H](C)[C@H](NC(C)=O)C(=O)N[C@H](C(=O)N[C@@H](Cc1ccccc1)[C@H](O)C(=O)N1CSC(C)(C)[C@@H]1C(=O)N[C@H](C(=O)N[C@@H](C)C(N)=O)[C@@H](C)CC)[C@@H](C)CC | 6.80 | 82%
CC[C@H](C)[C@H](NC(=O)[C@@H]1N(C(=O)[C@@H](O)[C@H](Cc2ccccc2)NC(=O)[C@@H](NC(=O)[C@@H](NC(C)=O)c2ccccc2)C(C)(C)C)CSC1(C)C)C(N)=O | 6.84 | 93%
CC[C@H](C)[C@H](NC(C)=O)C(=O)N[C@H](C(=O)N[C@@H](Cc1ccccc1)[C@H](O)C(=O)N1CSC(C)(C)[C@@H]1C(=O)N[C@H](C(=O)N[C@@H](CCSC)C(N)=O)C(C)(C)C)[C@@H](C)CC | 6.74 | 79%
CC[C@H](C)[C@H](NC(C)=O)C(=O)N[C@@H](Cc1ccccc1)[C@H](O)C(=O)N1CSC(C)(C)[C@@H]1C(=O)N[C@H](C(=O)N[C@@H](CCSC)C(N)=O)[C@@H](C)CC | < 6.00 | 89%
